System: Detroit-562 cells
Experiment: Combination studies (single and sequential combination dosing), % cytotoxicity in Detroit-562 cells
Conditions: Homo sapiens, Detroit 562, Detroit-562; for cytotoxicity at 14.1 µM: single agent at IC50 (compound B 14.1 μM); for cytotoxicity at 25.2 µM: single agent at IC70 (compound B 25.2 μM)
Experimental: Logarithmically growing cells were plated at a density of 3×10^3 cells/well and allowed to recover overnight. […] After 72 hours, cell toxicity was determined by CCK-8 (Cell Counting Kit-8) reagent (Dojindo Molecular Technologies, Japan); WST-8 (2-(2-methoxy-4-nitrophenyl)-3-(4-nitrophenyl)-5-(2, 4-disulfophenyl)]-2H-tetrazolium, monosodium salt) assay. In accordance with the manufacturer's instructions, 5 μl/well CCK-8 reagent was added and plates were incubated for 2 hours. The toxicity was determined by measuring the absorbance on Tecan Sapphire multi-fluorescence micro-plate reader (Tecan, Germany, GmbH) at a wavelength of 450 nm corrected to 650 nm and normalized to controls.
CCK-8 allows convenient assays using Dojindo's tetrazolium salt, WST [8[(2-(2-methoxy-4-nitrophenyl)-3-(4-nitrophenyl)-5-(2,4-disulfophenyl)-2H-tetrazolium, monosodium salt], which produces a water-soluble formazan dye upon bioreduction in the presence of an electron carrier, 1-Methoxy PMS. CCK-8 solution is added directly to the cells; no pre-mixing of components is required. CCK-8 is a sensitive nonradioactive colorimetric assay for determining the number of viable cells in cell proliferation and cytotoxicity assays. WST-8 is bio-reduced by cellular dehydrogenases to an orange formazan product that is soluble in tissue culture medium. The amount of formazan produced is directly proportional to the number of living cells. The detection sensitivity of cell proliferation assays using WST-8 is higher than assays using the other tetrazolium salts such as MIT, XTT, MTS or WST-1. Optical Density was determined at measurement wavelength of 450 nm and reference wave length of 630 nm.
(§1) Sorafenib in the following dose of final concentration 1.8 μM and compound A in the following doses of final concentration 0.5 μM, 1.3 μM and 12.1 μM were analyzed in single dose and in all possible combinations of the dose range for the two anticancer agents mentioned above. The sequence of treatment is as follows; Detroit-562 cells were treated with sorafenib for 0 to 24 hrs. At the end of 24 hrs the cells were washed two times with plain MEM medium. Fresh MEM with 10% serum (200 μL/well) was added, followed by treatment with compound A from 24 hrs to 96 hrs.
as §1, with “compound B” for “compound A”, “concentration 2.7” for “concentration 0.5”, “μM, 14.1” for “μM, 1.3”, “and 25.2” for “and 12.1”, “follows; the” for “follows;”
as §1, with “Lapatinib” for “Sorafenib”, “1” for “1.8”, “follows; the” for “follows;”, “lapatinib” for “sorafenib”
Lapatinib in the following dose of final concentration 1.0 μM and compound B in the following doses of final concentration 2.7 μM, 14.1 μM and 25.2 μM were analyzed in single dose and in all possible combinations of the dose range for the two drugs mentioned above. The sequence of treatment is as follows; the Detroit-562 cells were treated with lapatinib for 0 to 24 hrs. At the end of 24 hrs the cells were washed two times with plain MEM medium. Fresh MEM with 10% serum (200 μL/well) was added, followed by treatment with compound A from 24 hrs to 96 hrs.

Question: With `CN1CC[C@@H](c2c(O)cc(O)c3c(=O)cc(-c4ccc(C(F)(F)F)cc4Cl)oc23)[C@@H]1CO.Cl` [Compound B, (+)-trans-2-(2-chloro-4-trifluoromethyl-phenyl)-5,7-dihydroxy-8-(2-hydroxymethyl-1-methyl-pyrrolidin-3-yl)-chromen-4-one hydrochloride] as the compound, how does the cytotoxicity at 2.7 µM (single agent at IC30 (lapatinib 1.0 μM; compound B 2.7 μM)) read?
Answer: 15%

Question: What about the cytotoxicity at 2.7 µM (single agent at IC30 (sorafenib 1.8 μM; compound B 2.7 μM)) of the same compound?
Answer: 15%

Question: What about the cytotoxicity at 14.1 µM (lapatinib study) of the same compound?
Answer: 18%

Question: What about the cytotoxicity at 14.1 µM (sorafenib study) of the same compound?
Answer: 19%

Question: And the cytotoxicity at 25.2 µM (lapatinib study)?
Answer: 30%

Question: And the cytotoxicity at 25.2 µM (sorafenib study)?
Answer: 26%
